Target: T1, MLLT1 (Homo sapiens, UniProt Q03111)
T1 construct: host or cells: MV4-11
T1 sequence (Q03111 1-559): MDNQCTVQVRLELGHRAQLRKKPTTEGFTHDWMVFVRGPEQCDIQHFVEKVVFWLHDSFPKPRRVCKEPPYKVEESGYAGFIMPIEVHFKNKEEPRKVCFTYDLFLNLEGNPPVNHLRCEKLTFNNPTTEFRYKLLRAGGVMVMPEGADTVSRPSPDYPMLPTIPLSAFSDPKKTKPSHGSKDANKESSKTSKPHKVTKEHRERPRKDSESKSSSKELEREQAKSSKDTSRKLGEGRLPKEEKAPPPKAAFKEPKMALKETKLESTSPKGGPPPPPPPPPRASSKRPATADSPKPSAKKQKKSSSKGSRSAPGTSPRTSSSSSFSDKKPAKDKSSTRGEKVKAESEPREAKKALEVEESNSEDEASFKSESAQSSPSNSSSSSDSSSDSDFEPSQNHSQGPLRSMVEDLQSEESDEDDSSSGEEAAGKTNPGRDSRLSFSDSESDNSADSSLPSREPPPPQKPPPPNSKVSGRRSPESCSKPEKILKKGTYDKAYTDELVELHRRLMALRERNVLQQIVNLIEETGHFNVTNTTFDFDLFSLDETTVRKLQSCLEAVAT
Test: MLLT1 degradation assay in MV4-11 cells (JESS chemiluminescent detection), three concentrations, 24 h
Assay type: cell-based
Conditions: with respect to DMSO control
Procedure: MLLT1 degradation efficacy of compounds were tested in an automated chemiluminescent detection system (JESS, Cat #004-650). […] 10 mM DMSO stocks were prepared, and cells were treated with three concentrations of test compounds viz. 1000, 100 and 10 nM at a final DMSO concentration of 0.1% and incubated for 24 h at 37° C., 5% CO2. […] Post run, data were analysed using “Compass for SW” software for chemiluminescent detection. The peak area for each band was used for the calculation of MLLT1 degradation with respect to DMSO control. Data is shown as “MLLT1% degradation”.

Row | SMILES | MLLT1% Degradation @ 0.01 μM | MLLT1% Degradation @ 0.1 μM | MLLT1% Degradation @ 1 μM
1 | CN1CCC[C@@H]1c1cc2cnc(NC(=O)c3ccc(N4CCN(CC5CCN(c6ccc7c(c6)C(=O)N(C6CCC(=O)NC6=O)C7=O)CC5)CC4)cc3)cc2[nH]1 (stereo partly drawn) [Example 221, 4-(4-((1-(2-(2,6-dioxopiperidin-3-yl)-1,3-dioxoisoindolin-5-yl)piperidin-4-yl)methyl)piperazin-1-yl)-N-(2-((R)-1-methylpyrrolidin-2-yl)-1H-pyrrolo[3,2-c]pyridin-6-yl)benzamide] | C (Category C: 25% ≤ C < 50% degradation) | B (Category B: 50% ≤ B < 75% degradation) | B (Category B: 50% ≤ B < 75% degradation)
2 | CN1CCC[C@@H]1c1cc2cnc(NC(=O)c3ccc(OCCC4CCN(c5cccc6c5CN(C5CCC(=O)NC5=O)C6=O)CC4)cc3)cc2[nH]1 (stereo in doubt) [Example 81, 4-(2-(1-(2-((rel-R)-2,6-dioxopiperidin-3-yl)-1-oxoisoindolin-4-yl)piperidin-4-yl)ethoxy)-N-(2-((R)-1-methylpyrrolidin-2-yl)-1H-pyrrolo[3,2-c]pyridin-6-yl)benzamide] | A (Category A: A ≥ 75% degradation) | A (Category A: A ≥ 75% degradation) | A (Category A: A ≥ 75% degradation)
3 | CN1CCC[C@@H]1c1cc2cnc(NC(=O)c3ccc(OCC4CC5(CCN(c6cccc7c6CN(C6CCC(=O)NC6=O)C7=O)CC5)C4)cc3F)cc2[nH]1 (stereo partly drawn) [Example 201, 4-((7-(2-(2,6-dioxopiperidin-3-yl)-1-oxoisoindolin-4-yl)-7-azaspiro[3.5]nonan-2-yl)methoxy)-2-fluoro-N-(2-((R)-1-methylpyrrolidin-2-yl)-1H-pyrrolo[3,2-c]pyridin-6-yl)benzamide] | B (Category B: 50% ≤ B < 75% degradation) | A (Category A: A ≥ 75% degradation) | A (Category A: A ≥ 75% degradation)
4 | CN1CCC[C@@H]1c1cc2cnc(NC(=O)c3ccc(N4CC[C@@H](CC#Cc5cccc6c5CN(C5CCC(=O)NC5=O)C6=O)C4)nc3)cc2[nH]1 (stereo partly drawn) [Example 226, 6-((3R)-3-(3-(2-(2,6-dioxopiperidin-3-yl)-1-oxoisoindolin-4-yl)prop-2-yn-1-yl)pyrrolidin-1-yl)-N-(2-((R)-1-methylpyrrolidin-2-yl)-1H-pyrrolo[3,2-c]pyridin-6-yl)nicotinamide] | B (Category B: 50% ≤ B < 75% degradation) | B (Category B: 50% ≤ B < 75% degradation) | C (Category C: 25% ≤ C < 50% degradation)
5 | CN1CCC[C@@H]1c1cc2cnc(NC(=O)c3ccc(-c4cnn(CCCC#Cc5cccc(C(=O)N[C@H]6CCC(=O)NC6=O)n5)c4)cc3)cc2[nH]1 [Example 62, N—((S)-2,6-dioxopiperidin-3-yl)-6-(5-(4-(4-((2-((R)-1-methylpyrrolidin-2-yl)-1H-pyrrolo[3,2-c]pyridin-6-yl)carbamoyl)phenyl)-1H-pyrazol-1-yl)pent-1-yn-1-yl) picolinamide] | B (Category B: 50% ≤ B < 75% degradation) | A (Category A: A ≥ 75% degradation) | B (Category B: 50% ≤ B < 75% degradation)
6 | CCN1CCC[C@@H]1c1cc2cnc(NC(=O)c3ccc(N4CCC(CC#Cc5cccc6c5CN(C5CCC(=O)NC5=O)C6=O)CC4)nc3)cc2[nH]1 (stereo partly drawn) [Example 73, 6-(4-(3-(2-(2,6-dioxopiperidin-3-yl)-1-oxoisoindolin-4-yl)prop-2-yn-1-yl)piperidin-1-yl)-N-(2-((R)-1-ethylpyrrolidin-2-yl)-1H-pyrrolo[3,2-c]pyridin-6-yl)nicotinamide] | B (Category B: 50% ≤ B < 75% degradation) | A (Category A: A ≥ 75% degradation) | B (Category B: 50% ≤ B < 75% degradation)

Source: US20260191968A1, “PROTAC DEGRADERS OF MLLT1 AND/OR MLLT3” (DARK BLUE THERAPEUTICS LTD, priority 2024, published 2026)
